Assay results published in US4939241A, “Amino acid derivatives of antitumor activity” (Fujisawa Pharmaceutical Co., Ltd., priority 1987, dated 1990).
≈ marks a conversion by molar mass, not a printed value.

Experiments:
[1] = test system: human lung adenocarcinoma A549 cell; assay: Inhibition of human lung adenocarcinoma A549 cell growth in vitro (MTT assay); format: cell-based; conditions: 168 h, A549 cells, seven days at 37° C.
Procedure: Inhibition of human lung adenocarcinoma A549 cell growth in vitro by some compounds of the amino acid derivatives (I)
The cytotoxicity test was performed in microtiter plates, with each well containing 3×10^3 A549 cells in 100 μl Dulbecco's minimum essential medium supplemented with 10% fetal calf serum, penicillin (50 units/ml) and streptomycin (50 μg/ml). The cells were incubated at 37° C. for seven days and the colorimetric MTT (tetrazolium) assay was performed according to the method described by Mosmann (J. Immunol. Methods, 65, 55-63, 1983). MTT [3-(4,5-dimethylthiazol-2-yl)-2,5-diphenyl tetrazolium bromide, made by Sigma] was dissolved in PBS at 5 mg/ml and filtered to sterilize and remove a small amount of insoluble residue. After the culture of A549 cells was terminated, this MTT solution (10 μl per 100μl medium) was added to plates were further incubated at 37° C. for 4 hours. Acid-isopropanol (100 μl of 0.04N HCl in isopropanol) was added to all wells and mixed thoroughly to dissolve the dark blue crystals. After all crystals were dissolved, the plates were read on a 2-wavelength microplate photometer (Model MTP-22; Corona Electric Co., Ltd., Katsuta, Japan) at 550 nm, a reference wavelength of 660 nm. The object compound of this invention was dissolved and diluted in Dulbecco's minimum essential medium and added to the culture to give final concentration of 30μg/ml or less.

[2] = test system: human mammary adenocarcinoma MCF-7 cell; assay: Inhibition of human mammary adenocarcinoma MCF-7 cell growth in vitro (MTT assay); format: cell-based; conditions: MCF7, 168 h, MCF-7 cells, seven days at 37° C.
Procedure: Inhibition of human mammary adenocarcinoma MCF-7 cell growth in vitro by some compounds of the amino acid derivatives (I)
The cytotoxicity test was performed in microtiter plates, with each well containing 3×10^3 MCF-7 cells in 100 μl Eagle's minimum essential medium supplemented with 10% fetal calf serum, sodium pyruvate, nonessential amino acids, penicillin (50 units/ml) and streptomycin (50 μg/ml). The cells were incubated at 37° C. for seven days in humidified atomosphere of 5% carbon dioxide and 95% of air and the colorimetric MTT assay was performed as described in Test 1.
The test compound was dissolved and diluted in Eagle's minimum essential medium and added to the culture to give final concentration of 30 μg/ml or less.

[3] = Acute toxicity in BDF1 mice by intravenous injection; conditions: mouse, in vivo
Procedure: Acute toxicity of FR-900840 substance in BDF1 mice by intravenous injection is 180 mg/kg.

[4] = Solubility of FR-900840 substance; format: physicochemical

| Compound | IC50 [1] | IC50 [2] | other results |
| --- | --- | --- | --- |
| [N-]=[N+]=C(C(=O)OC[C@H](N)C(=O)O)C(O)c1ccccc1 (stereo partly shown) [Example 5] | 0.14 ng/mL (≈ 0.501 nM) | 0.076 ng/mL (≈ 0.272 nM) |  |
| C[C@H](O)C(=[N+]=[N-])C(=O)OC[C@H](N)C(=O)O [Example 4, O-[2-Diazo-3(S)-hydroxy-1-oxobutyl]-L-serine] | 0.018 ng/mL (≈ 0.0829 nM) | 0.00082 ng/mL (≈ 0.00378 nM) |  |
| [N-]=[N+]=C(CO)C(=O)OC[C@H](N)C(=O)O [Example 6, O-(2-Diazo-3-hydroxy-1-oxopropyl)-L-serine] | 0.0018 ng/mL (≈ 0.00886 nM) | 0.0017 ng/mL (≈ 0.00837 nM) |  |
| C[C@@H](O)C(=[N+]=[N-])C(=O)OC[C@H](NC(=O)C(F)(F)F)C(=O)O [Example 2, O-[2-Diazo-3(R)-hydroxy-1-oxobutyl]-N-trifluoroacetyl-L-serine] | 0.0105 ng/mL (≈ 0.0335 nM) | 0.0068 ng/mL (≈ 0.0217 nM) |  |
| C[C@@H](O)C(=[N+]=[N-])C(=O)OC[C@H](N)C(=O)O [Example 1, O-[2-diazo-3(R)-hydroxy-1-oxobutyl]-L-serine] | 0.012 ng/mL (≈ 0.0553 nM) | 0.0018 ng/mL (≈ 0.00829 nM) | LD50 [3]: 180 mg/kg; Solubility ([4]; acetone): insoluble; Solubility ([4]; benzene): insoluble; Solubility ([4]; chloroform): insoluble; Solubility ([4]; diethyl ether): insoluble; Solubility ([4]; ethanol): sparingly soluble; Solubility ([4]; ethyl acetate): insoluble; Solubility ([4]; methanol): sparingly soluble; Solubility ([4]; water): soluble |
